# From patent US6911470B1, “Polyoxometalate compounds as antiviral agents” (priority 1988, dated 2005)
# Read-outs that look alike come from different tables or passages of the source.
# Tests used:
# [1] = test system: human bone marrow cells; settings: background statement; cited from earlier work
# [2] = test system: human granulocyte-macrophage precursor cells; assay type: cell-based
# Description: Preparation of Cells. Human bone marrow cells were collected by aspiration from the posterior iliac crest of normal healthy volunteers, treated with heparin and the mononuclear population separated by Ficoll-Hypaque gradient centrifugation. Cells were washed twice in Hanks balanced salt solution, counted with a hemacytometer and their viability was >98% as assessed by trypan blue exclusion.
# Assay of Colony-Forming Unit Granulocyte-Macrophage (CFU-GM) for Drug Cytotoxicity. The culture assay for CFU-GM was performed using a bilayer soft-agar method as recently described (Sommadossi et al, Antimicrob. Agents Chemother. 31, 452-454, 1987). McCoy 5A nutrient medium supplemented with 15% dialyzed fetal bovine serum (heat inactivated at 56° C. for 30 min.) (Gibco Laboratories, Grand Island, N.Y.) was used in all experiments. This medium was completely lacking in thymidine and uridine. Cells were cloned in 0.3% agar in the presence of increasing concentrations of the modulating compound or in medium alone (control). After 14 days of incubation at 37° C. in a humidified atmosphere of 5% CO2 in air, colonies (≧50 cells) were counted using an inverted microscope.
# The toxicities of a variety of polyoxometalates with respect to human bone marrow cells (human granulocyte-macrophage precursor cells) were assessed.
# [3] = background statement; AZT in a clinical setting; cited from earlier work
# [4] = test system: HIV-1 (strain LAV-1); test: microbe, parasite or virus in culture; assay type: cell-based
# Description: Cells. Human peripheral blood mononuclear cells (PBMC) from healthy HIV-1 seronegative and hepatitis B virus seronegative donors were isolated by Ficoll-Hypaque discontinuous gradient centrifugation at 1,000×g for 30 minutes, washed twice in phosphate-buffered saline (pH 7.2; PBS), and pelleted at 300×g for 10 minutes. Before infection, the cells were stimulated by phytohemagglutinin (PHA) at a concentration of 6 μg/ml for three days in RPMI 1640 medium supplemented with 15% heat-inactivated fetal calf serum, 1.5 mM L-glutamine, penicillin (100 U/ml), streptomycin (100 μg/ml), and 4mM sodium bicarbonate buffer.
# Viruses. HIV-1 (strain LAV-1) was obtained from Dr. P. Feorino (Centers for Disease Control, Atlanta, Ga.). The virus was propagated in human PBMC using RPMI 1640 medium, as described previously (McDougal et al, J. Immun. Meth. 76, 171-183, 1985) without PHA and supplemented with 7% v/v interleukin-2 (Advanced Biotechnologies, Silver Spring, Md.), 7 μg/ml DEAE-dextran (Pharmacia, Uppsala, Sweden), and 370 U/ml anti-human leucocyte (alpha) interferon (ICN, Lisle, Ill.). Virus obtained from cell-free culture supernatant was titrated and stored in aliquots at −80° C. until use.
# Inhibition of virus replication in human PBMC. Uninfected PHA-stimulated human PBMC were uniformly distributed among 25 cm^2 flasks to give a 5 ml suspension containing about 2×10^6 cells/ml. Suitable dilutions of virus were added to infect the cultures. The mean reverse transcriptase (RT) activity of the inocula was 50,000 decompositions per min/ml corresponding to about 100 TCID50, as determined by Groopman et al. (Groopman et al, AIDS Res. Human Retro. 3, 71-85, 1987. The drugs at twice their final concentrations in 5 ml of RPMI 1640 medium, supplemented as described above, were added to the cultures. Uninfected and untreated PBMC at equivalent cell densities were grown in parallel as controls. The cultures were maintained in a humidified 5% CO2-95% air incubator at 37° C. for six days after infection, at which point all cultures were sampled for supernatant reverse transcriptase (RT) activity.
# RT activity assay. Six ml supernatant from each culture was clarified from cells at 300×g for 10 minutes. Virus particles were pelleted from 5 ml samples at 40,000 rpm for 30 minutes using a Beckman 70.1 Ti rotor and suspended in 200 μl of virus disrupting buffer (50 mM Tris-Cl, pH 7.8, 800 mM NaCl, 20% glycerol, 0.5 mM phenylmethyl sulfonyl fluoride, and 0.5% Triton X-100).
# The RT assay was performed in 96-well microtiter plates, as described by Spira et al. (Spira et al, J. Clin. Microbiol. 22, 97-99, 1987). The reaction mixture, which contained 50 mM Tris-Cl pH 7.8, 9 mM MgCl2, 5 mM dithiothreitol (DTT), 4.7 μg/ml (rA)n. (dT)12-18, 140 μM dATP, and 0.22 μM [^3H]TTP, specific activity 78.0 Ci/mmol, equivalent to 17,300 cpm/pmol; NEN Research Products, Boston, Mass., was added to each well. The sample (20 μl) was added to the reaction mixture which was then incubated at 37° C. for 2 hours. The reaction was terminated by the addition of 100 μl 10% trichloroacetic acid (TCA) containing 0.45 mM sodium pyrophosphate. The acid-insoluble nucleic acids which precipitated were collected on glass filters using a Skatron semi-automatic harvester. The filters were washed with 5% TCA and 70% ethanol, dried, and placed in scintillation vials. Four ml of scintillation fluid (Econofluor, NEN Research Products, Boston, Mass.) were added and the amount of radioactivity in each sample was determined using a Packard Tri-Carb liquid scintillation analyzer (model 2,000CA). The results were expressed in dpm/ml of original clarified supernatant.
# Median-effect method. Dose-effect relationships were analyzed by the median-effect equation (Chou et al, Adv. Enz. Regul. 22, 27-55, 1984).
# [5] = test system: human PBM cells; test: Cytotoxicity assay on uninfected PHA stimulated human PBMC (trypan blue); assay type: cell-based; settings: Table 1; read-out: IC50 Toxicity in Human PBM Cells
# Description: Cells. […] PBS), and pelleted at 300×g for 10 minutes. […] Cytotoxicity assay. The drugs were evaluated for their potential toxic effects on uninfected PHA stimulated human PBMC. Flasks were seeded so that the final cell concentration was 2×10^5 cells/ml. The cells were cultured with and without drug for 6 days, at which time aliquots were counted for cell viability, as assessed by the trypan blue dye-exclusion method using a hemacytometer. The median inhibitory concentration (IC50) was calculated using the median effect method (Chou et al, Elsevier-Biosoft, Elsevier Science Publishers, Cambridge, U.K., 1985; Chou et al, Adv. Enz. Regul. 22, 27-55, 1984). Median-effect method. Dose-effect relationships were analyzed by the median-effect equation (Chou et al, Adv. Enz. Regul. 22, 27-55, 1984). The slope (m) and median effective and inhibitory concentration (EC50 and IC50) values were obtained by using a computer program developed by Chou and Chou (Chou et al, Elsevier-Biosoft, Elsevier Science Publishers, Cambridge, U.K., 1985).
# [6] = Comparison of toxicity of polyoxometalate compounds in mice (mortality, haematology); assay type: in vivo; set-up: MCV (mean corpuscular volume): unit not given here; settings: BID × 6, 60 mkd i.p.
# Description: Comparison of Toxicity of Polyoxometalate Compounds Mice.
# In vivo antiviral experiments. […] Treatment was continued daily for 6 or 10 days.
# [7] = reason it must be taken intravenously; cited from earlier work
# [8] = test system: Mouse Ecotropic, CNS (CAS-Br-M); test: UV/XC assay for murine retroviruses in SC-1 cells; assay type: cell-based, murine retrovirus; settings: Table 2; read-out: EC-50 Mouse Ecotropic, CNS (CAS-Br-M)
# Description: UV/XC Assay for Murine Retroviruses Cells. Mouse embryo fibroblasts (SC-1) and XC cells were obtained from the American Type Culture Collection, Rockville, Md. […] The cells were maintained in Eagle's minimum essential medium with Hanks balanced salt solution, supplemented with penicillin (100 U/ml), streptomycin (100 μg/ml), sodium bicarbonate (24 mM), Hepes (25 mM), and either 2 (maintenance) or 10 (growth) percent inactivated newborn or fetal calf serum.
# Virus quantitation by UV-XC assay. The XC test (Rowe et al, Virology 42, 1136-1139, 1970) is a plaque-type of assay which tests for the presence and titer of B- and N-tropic murine leukemia viruses. Because these viruses produce no overt signs of infection of SC-1 mouse cells, it is necessary to overlay the virus producing culture with an indicator cell line, XC. The number of syncytia that are produced is a direct measure of the virus titer in FFU.
# Six-well plates were seeded with 1×10^5 SC-1 mouse cells on the first day. On the following day the medium was removed and the inoculum (0.2 ml) was added in medium containing polybrene (4 μg/ml). For determining the antiviral activity of the compounds in culture, the virus dilution selected produced in untreated cultures about 80 foci per well. […] Control cells without virus but receiving the drug provided an estimate of the drug's toxic effects as quantitated by using trypan blue staining.
# [9] = biological target: T1, HIV-1 reverse transcriptase (Human immunodeficiency virus type 1 group M subtype B, UniProt P04585); test: Evaluation of compounds on purified retroviral RT (cell-free, virion-derived); assay type: biochemical; settings: Table 2; read-out: EC-50 Cell-Free RT (virion-derived)
# T1 construct: HIV-1 RT was isolated from detergent disrupted virions; made in house; host or cells: virions pelleted from culture fluid of HIV-1-infected PHA-stimulated human PBMC; DEAE-cellulose and phosphocellulose chromatography
# Description: Evaluation of compounds on purified retroviral RT. HIV-1 RT was isolated from detergent disrupted virions obtained from the cell-free supernatant of infected PHA-stimulated PBMC. The enzyme was purified by passing the extract through ion-exchange chromatography columns, as described previously (Eriksson et al, Antimicrob. Agents Chemother. 31, 600-604, 1977. Briefly, 750 ml of culture fluid harvested from HIV-1-infected PBMC were ultracentrifuged to pellet the virus. The pellet was dissolved in buffer A [50 mM Tris-HCl, pH 7.9/0.25% Nonidet P-40/5 mM dithiothreitol/20% (vol/vol) glycerol] containing 1 mM EDTA, and freeze-thawed four times. After clarification by centrifugation, the enzyme was partially purified from the supernatant by passing the extract through a DEAE-cellulose column (Whatman DE-52; 2.6×15 cm) previously equilibrated with buffer B (50 mM Tris-Cl, pH 7.9, 50 mM KCl, 1 mM EDTA, 1 mM dithiothreitol, 20% glycerol). Elution was performed using a linear gradient 50-500 mM KCl in buffer B. Fractions containing enzyme activity were dialyzed against buffer B and were further purified on a phosphocellulose column (Whatman P-11) using a linear KCl (50-500 mM) gradient in buffer B. The peak fractions were pooled and dialyzed against buffer B. The enzyme was characterized as HIV-1 reverse transcriptase based on its cation, salt, pH, and template requirements according to previous descriptions (Eriksson et al, Antimicrob. Agents Chemother. 31, 600-604, 1977). The standard reaction mixture was used to evaluate the inhibitory effect of the drugs, as previously described (Eriksson et al, Antimicrob. Agents Chemother. 31, 600-604, 1977). Briefly, the reaction mixtures (final volume 100 μl) contained 100 mM Tris-HCl, pH 8.0, 50 mM KCl, 2 mM MgCl2, 5 mM DTT, 400 ug/ml bovine serum albumin, 3 μg/ml (rA)·(dT)12-18 and 1 μM of [^3H]TTP (specific activity 82.3 Ci/mmol). The reactions were started by the addition of 10 μl of partially purified RT, incubated at 37° C. for 60 min., and processed as previously described (Eriksson et al, Antimicrob. Agents Chemother. 31, 600-604, 1977).
# Median-effect method. Dose-effect relationships were analyzed by the median-effect equation (Chou et al, Adv. Enz. Regul. 22, 27-55, 1984). The slope (m) and median effective and inhibitory concentration (EC50 and IC50) values were obtained by using a computer program developed by Chou and Chou (Chou et al, Elsevier-Biosoft, Elsevier Science Publishers, Cambridge, U.K., 1985).
# [10] = Table 2, several values per cell, some in brackets, read-out: EC-50 HIV-1 (LAV-1)
Substance,toxicity to human bone marrow cells [1],"toxicity to human bone marrow cells (order of toxicity, FIG. 6) [2]",adverse effect [3],"EC50 ([4]; Table 1, read-out: EC50 Anti-HIV-1 Activity in Human PBM Cells) [nM]","EC50 [4, 10] [nM]",IC50 [5] [nM],Hct (hematocrit) ([6]; bled on day 17) [%],Hgb (hemaglobin) ([6]; bled on day 17) [g/dL],MCH ([6]; bled on day 17) [pg],MCHC (mean corpuscular hemoglobin concentration) ([6]; bled on day 17) [g/dL],MCV (mean corpuscular volume) ([6]; bled on day 17),PLT (platelates) (×1000) ([6]; bled on day 17),RBC (×1000000) ([6]; bled on day 17),RDW (width of red cells) ([6]; bled on day 17) [%],WBC (×1000) ([6]; bled on day 17),Mortality ([6]; dead/total),pH at which it degrades [7],EC50 [8] [nM],EC50 [9] [nM]
"(NH4)17Na[NaSbgW21O86] [Formula 1, reference compound]",high toxicity,most toxic,induces thrombocytopenia,390,290,35000,14.82 ± 4.44,5.5 ± 1.43,17.64 ± 2.07,37.66 ± 4.32,46.86 ± 0.4,226.4 ×1000,3.16 ± 0.95 ×1000000,35.6 ± 2.12,4.16 ± 1.45 ×1000,0/5,< 4,,
K5BW12O40 [α-K5BT],,,,,360,,,,,,,,,,,,,910,2900
